Measurements as given in patent publication US9968577B2, “Treatment and prevention of bone loss using resolvins” (Forsyth Dental Infirmary for Children, priority 2005, dated 2018).

System: P. gingivalis-induced periodontitis
Assay: Ligature + P. gingivalis experimental periodontitis, topical application of Resolvin E1
Format: in vivo, New Zealand White rabbits
[1] = rabbit, topical, every other day for 6 weeks, compared with baseline

CC[C@@H](O)/C=C/C=C\C[C@@H](O)/C=C/C=C/C=C\[C@@H](O)CCCC(=O)O [Resolvin E1]
bone loss (rabbit model, topical administration): prevents bone loss | soft tissue condition (mandibles, FIG. 2) (rabbit, topical resolvin E1 7 μg/μL in ethanol every other day for 6 weeks, starting six weeks after ligature and P. gingivalis, vs control group): distinctly healthier than the control group | deposition of bone (bone growth), conclusion (rabbit, topical, every other day for 6 weeks): assisted in deposition of bone | hard tissue crestal distance measurements (FIG. 4 and FIG. 5) (rabbit, topical, every other day for 6 weeks, buccal and lingual, defleshed jaws): same results | soft tissue pocket depth measurements (FIG. 3) (rabbit, topical, every other day for 6 weeks, buccal and lingual, vs vehicle alone): lower | hard-tissue-infrabony pocket depth measurements (FIG. 6) [1]: improvement over baseline | soft tissue pocket depth measurements vs baseline (FIG. 3) [1]: improvement over baseline | tooth mobility (FIG. 7) [1]: improvement over baseline
